Read-outs that look alike come from different tables or passages of the source.
Experiments:
Format in all cases: cell-based
[1] = tested on: Neonatal human dermal fibroblasts; assay: Procollagen I production by fibroblasts, slot blot
Description: Neonatal human dermal fibroblasts were purchased from Clonetics Corp., San Diego, Calif. All materials for cell culture were purchased from Life Technologies, NY and used in passages 5-10. Cells were seeded at a density of approximately 7,500/well in the inner 48 wells of a 96-well plate in a medium containing DMEM (Dulbecco's Modified Eagle's Medium), high-glucose supplemented with 2 mM L-glutamine, 10% fetal bovine serum, and antibiotic and antimycotic solutions). Cells were then grown to confluence for 2 days. At confluence, the medium was removed and cells were washed with serum-free DMEM, and each well dosed with 200 μl of a solution of a test compound in serum-free DMEM. Each dosing was replicated in the total of six wells. […] After 24 hours, the test compound solution or the control solution was removed and cells redosed with 100 μl of a solution of a test compound in serum-free DMEM. After 24 hours, the test compound solution or the control solution was removed and stored over the weekend at 4° C. with protease inhibitor (Aprotinin from Sigma) in a ratio of aprotinin to water of 1:200. The test compound solution was then diluted in DMEM (approximately 20 μl sample in 200 μl DMEM).
Nitrocellulose membrane and 3 sheets of filter paper were soaked in TRIS buffered saline (TBS, pH 7.3.). BioRad slot blot apparatus (BioRad Labs, CA) was set up with filter paper on bottom, membrane on top, tightened. […] TBS was added per well. Vacuum was used to suck wells through membrane. The diluted test compound solution or control was vortexed, then 100 μl was loaded per well and gravity dried. Procollagen from the test solution was bound to the membrane at this point in the procedure. Membrane was removed from the apparatus, excess cut off, and bottom right corner notched for orientation. The membrane was placed in blocking solution (5% milk powder in Dulbecco's phosphate buffered saline) overnight at 4° C., with shaking. The membrane was then incubated for 1.5 hrs at room temperature with 1.5 mL Rat Anti-Human Procollagen Amino-Terminal Ab (Chemicon MAB1912) in TBS with 0.1% BSA (ratio of antibody to buffer/BSA was 1:100) in a sealed bag with shaking. The membrane was then removed; washed 3 times for 5 minutes in TBS/0.1% Tween. The membrane was then incubated for 1 hour at room temperature in 2 mL of Biotinylated Anti-Rat Peroxidase-Conjugated Ab (Vector Labs) in TBS with 0.1% BSA (ratio of antibody to buffer/BSA was 1:1000) in a sealed bag with shaking.
The membrane was washed 3 times for 5 minutes in TBS/0.1%Tween. 3 mL PBS was incubated with 30 μl each of solutions A and B from Vectastain Kit for 30 minutes. The membrane was placed in the resulting solution for 30 minutes in a sealed bag with shaking. The membrane was then removed and washed twice for 5 minutes in TBS/0.1% Tween. The membrane was then stained using the following solution:
12.5 mg 3-amino 9-ethyl carbazole (Sigma)
3.125 (approximately) mL DMF (N,N-dimethylformamide, from Sigma)
The membrane was stained until color developed and the reaction stopped with 2 washes for 10 minutes in tap water. A transparency of the blot was prepared using a color copier. Blot was scanned on Bio-Rad GS-700 Image Analysis densitometer and volume (OD*mm^2) of color/slot determined using molecular analysis software. Fold increase was calculated as a ratio of densitometer reading for cells treated with a test compound over control.

[2] = tested on: Neonatal human dermal fibroblasts; assay: Glycosaminoglycan synthesis by fibroblasts, Alcian Blue dot blot; details: Table 7, glycosaminoglycans
Description: Neonatal human dermal fibroblasts were seeded at a density of approximately 50,000/well in a 12-well plate in a medium containing DMEM (high glucose supplemented with 2 mM L-glutamine, 10% fetal bovine serum, antibiotic and antimycotic solutions). Cells were then grown to confluence for 2 days. At confluence, each well was rinsed in serum-free DMEM and the cells dosed with test compounds (in triplicate) in 750 μL of serum-free DMEM. After 24 hours, this medium was aspirated and the treatment step repeated. After a second 24-hour period, this medium, containing the soluble GAGs, was collected and frozen until analysis.
A positively-charged Zeta Probe membrane was soaked in sterile water and placed into the Dot-Blot Apparatus (both Bio-Rad Labs, Hercules, Calif.). 100 μL of water was applied to each well and pulled through using a vacuum. After thawing, 100 μL of test solution samples or standards (Hyaluronic acid or Chondroitin Sulfate from bovine trachea, Sigma, St. Louis, Mo.) was applied to the membrane and allowed to gravity filter (about 1.5-2 hours). GAGs were now bound to membrane. The membrane was blocked in 3% w/v fatty acid free bovine serum albumin (Sigma) in water for one hour. A dye solution of 0.5% w/v Alcian Blue dye (ICN Biochemicals, Cleveland, Ohio.) in 3% acetic acid, pH approximately 2.3, was made. The membrane was washed twice in distilled water and then stained in the dye solution on a rotary shaker for 15 minutes. The dye was poured off and the membrane destained twice for 15 minutes each time in 3% acetic acid. The membrane was rinsed in water and left to dry overnight. The blot was scanned on Bio-Rad GS-700 Image Analysis Densitometer and volume (OD*mm^2) of color/slot determined using molecular analyst software. Fold increase over control was calculated as a ratio of densitometer reading for cells treated with a test compound over control.

human sebocytes = assay: Sebocyte assay: 14C-acetate label remaining in sebocytes (sebum suppression in vitro); details: for inhibition at 0.001 %: 0.001% test agent; for sebum suppression, result in words: conclusion drawn from Tables 1-5; for inhibition at 0.01 %: 0.01% test agent
Description: Secondary cultures of human sebocytes obtained from an adult […] were grown in 48-well or 96-well tissue culture plates (Costar Corp.; Cambridge, Mass.) until three days post-confluence. Sebocyte growth medium consisted of Clonetics Keratinocyte Basal Medium (KBM) supplemented With 14 μg/ml bovine pituitary extract, 0.4 μ/ml hydrocortisone, 5 μ/ml insulin, 10ng/ml epidermal growth factor, 1.2×10^−10 M cholera toxin, 100 units/ml penicillin, and 100 μg/ml streptomycin. All cultures were incubated at 37° C. in the presence of 7.5% CO2. Medium was changed three times per week.
On the day of experimentation, the growth medium was removed and the sebocytes washed three times with sterile Dulbecco's Modified Eagle Medium (DMEM; phenol red free). Fresh DMEM was added to each sample (triplicates) with 1-5 microliter of test agent solubilized in ethanol. Controls consisted of addition of ethanol alone. Each plate was returned to the incubator for 20 hours followed by the addition of ^14C-acetate buffer (5 mM final concentration, 56 mCi/mmol specific activity). Sebocytes were returned to the incubator for four hours afterwhich each culture was rinsed three times with phosphate buffered saline to remove unbound label. Radioactive label remaining in the sebocytes was harvested and counted using a Beckman scintillation counter. Statistical significance (p value) was calculated using student's t-test. Phenol Red, a known sebum suppressive agent, was employed as a positive control.

[3] = Table 6B, positive control, concentration not given
[4] = positive control, concentration not given
[5] = Homo sapiens, 0.5 h, Table 4, 30 minute incubation, 48 well plate, read-out: % Reduction
[6] = Homo sapiens, 20 h, Table 3A, 20 hour incubation, 96 well plate, read-out: % Reduction
[7] = Table 6B, 0.0046% test compound

TGF-b
Average OD Reading ([1]; Table 6A, test compound 0.01%, densitometer volume (OD*mm^2)): 6.787
Fold increase over control ([1]; Table 6A, test compound 0.01%, ratio of densitometer reading over control): 1.9 fold
Average OD Reading [1, 3]: 4.099
Fold increase over control [1, 3]: 2.1 fold
Average OD Reading [2, 4]: 0.86
Fold increase over control [2, 4]: 3.3 fold

CC(C)CCCCCCCCCCOC(=O)c1ccccc1 [Isotridecyl Benzoate]
inhibition at 3.9e-05 % (human sebocytes; Homo sapiens, 20 h, Table 5, 0.000039% test agent, 20 hour incubation, 48 well plate, read-out: % Reduction): 36.3%
inhibition at 0.00039 % (human sebocytes; Homo sapiens, 20 h, Table 5, 0.00039% test agent, 20 hour incubation, 48 well plate, read-out: % Reduction): 52.2%
inhibition at 0.0039 % (human sebocytes; Homo sapiens, 20 h, Table 5, 0.0039% test agent, 20 hour incubation, 48 well plate, read-out: % Reduction): 41.8%
Average OD Reading ([1]; Table 6B, 0.003% test compound): 2.534
Fold increase over control ([1]; Table 6B, 0.003% test compound): 1.3 fold
Average OD Reading ([1]; Table 6B, 0.030% test compound): 2.669
Fold increase over control ([1]; Table 6B, 0.030% test compound): 1.4 fold
Average OD Reading ([2]; 0.003% test compound): 0.22
Fold increase over control ([2]; 0.003% test compound): 0.8 fold
Average OD Reading ([2]; 0.03% test compound): 0.38
Fold increase over control ([2]; 0.03% test compound): 1.5 fold

CCCCCCCCC(=O)OCCCCCCCCCCC(C)C [Isotridecyl Nonanoate]
inhibition at 0.001 % (human sebocytes; Homo sapiens, 20 h, Table 3B, 20 hour incubation, 48 well plate, read-out: % Reduction): 0.7%
inhibition at 0.1 % (human sebocytes; Homo sapiens, 20 h, Table 3B, 0.1% test agent, 20 hour incubation, 48 well plate, read-out: % Reduction): 0.8%
sebum suppression, result in words (human sebocytes): not effective sebum suppressive agents

CCCCCCCCCCCCCOC(=O)c1ccccc1O [Straight Chain TDS, tridecyl salicylate]
inhibition at 0.01 % (human sebocytes; [5]): 1.3%

CC(C)CCCCCCCCCCOC(=O)c1ccccc1O [Isotridecyl salicylate]
inhibition at 0.005 % (human sebocytes; Homo sapiens, 0.5 h, Table 4, 0.005% test agent, 30 minute incubation, 48 well plate, read-out: % Reduction): 24.6%
inhibition at 0.01 % (human sebocytes; [5]): 48.9%
sebum suppression, result in words (human sebocytes): effective in suppressing sebum

CCCCCCCCCCCCCC(=O)OC(C)C [Isopropyl Myristate, Isopropyl myristate]
inhibition at 0.001 % (human sebocytes; [6]): -6.3%
inhibition at 0.01 % (human sebocytes; [6]): 4%
sebum suppression, result in words (human sebocytes): not an effective sebum suppressor

CCCC(=O)OCCCCCCCCCCC(C)C [Isotridecyl Butyrate]
inhibition at 0.00027 % (human sebocytes; Homo sapiens, 20 h, Table 3C, 0.00027% test agent, 20 hour incubation, 48 well plate, read-out: % Reduction): 4.1%
inhibition at 0.0027 % (human sebocytes; Homo sapiens, 20 h, Table 3C, 0.0027% test agent, 20 hour incubation, 48 well plate, read-out: % Reduction): 17.2%
sebum suppression, result in words (human sebocytes): not effective sebum suppressive agents

CCCCCCCCCC(=O)OCCCCCCCCCCC(C)C [Isotridecyl Decanoate]
sebum suppression, result in words (human sebocytes): not effective sebum suppressive agents

O=S1(=O)OC(c2ccc(O)cc2)(c2ccc(O)cc2)c2ccccc21 [Phenol Red]
inhibition at 0.001 % (human sebocytes; Homo sapiens, 20 h, Table 1, 20 hour incubation, 48 well plate, read-out: % Reduction): 19.6%
inhibition at 0.001 % (human sebocytes; [6]): 14%
inhibition at 0.01 % (human sebocytes; [6]): 71.2%

CCCCC/C=C\C/C=C\CCCCCCCC(=O)OCCCCCCCCCCC(C)C [Isotridecyl Linoleate]
inhibition at 4.6e-05 % (human sebocytes; Homo sapiens, 20 h, Table 5, 0.000046% test agent, 20 hour incubation, 48 well plate, read-out: % Reduction): 57.3%
inhibition at 0.00046 % (human sebocytes; Homo sapiens, 20 h, Table 5, 0.00046% test agent, 20 hour incubation, 48 well plate, read-out: % Reduction): 50.9%
inhibition at 0.0046 % (human sebocytes; Homo sapiens, 20 h, Table 5, 0.0046% test agent, 20 hour incubation, 48 well plate, read-out: % Reduction): 44.9%
Average OD Reading [1, 7]: 2.346
Fold increase over control [1, 7]: 1.2 fold
Average OD Reading ([1]; Table 6B, 0.046% test compound): 2.4585
Fold increase over control ([1]; Table 6B, 0.046% test compound): 1.3 fold
Average OD Reading ([2]; 0.0046% test compound): 0.40
Fold increase over control ([2]; 0.0046% test compound): 1.5 fold
Average OD Reading ([2]; 0.046% test compound): 0.29
Fold increase over control ([2]; 0.046% test compound): 1.1 fold
